Data taken from patent US20130129832A1, “COGNITIVE IMPAIRMENT AMELIORANT” (TOHOKU UNIVERSITY, priority 2008, published 2013).

Assays:
[1] = system: CRE-dependent transcription in cultured rat hippocampal neuronal cells; assay: CRE-dependent transcription reporter gene (luciferase) assay in cultured rat hippocampal neuronal cells; format: cell-based; settings: 8 hours treatment with different concentrations, FIGS. 5 and 6
Experimental: (§1) FIG. 5 indicates concentration-dependent effects of nobiletin on CRE-dependent transcription in cultured rat hippocampal neuronal cells. Cells were inoculated at a density of 8×10^4 cells/48 well plate followed by holding the plate for 10 to 14 days. […] Following transfection, the cells were treated for 8 hours with different concentrations of […]. Data is shown as the mean±S.E.M. (n=6). Asterisks (*) indicate a level of significance of p<0.05 relative to a control, while double asterisks (**) indicate a level of significance of p<0.001 relative to a control.
as §1, with “FIG. 6 indicates concentration-dependent” for “FIG. 5 indicates concentration-dependent”, “effects of 4-demethylated nobiletin on” for “effects of nobiletin on”
A pregnant SD rat (E18) was sacrificed by cervical dislocation under ether anesthesia. […]
Results obtained from the reporter gene assay were evaluated using one-way ANOVA (Tukey). […]

[2] = system: ERK phosphorylation in PC12D cells; assay: ERK phosphorylation in PC12D cells by western blotting (p-ERK relative to total ERK); format: cell-based; settings: 15 minutes treatment, 30 μM nobiletin alone, FIG. 2
Experimental: Therefore, the effects of royal jelly and the effects of the combined used of royal jelly and nobiletin on ERK activity in PC12D cells, which are considered to be model cells of nerve cells, were examined by western blotting using as an indicator thereof the effects of water-soluble components of “Royal Jelly FD Powder” on ERK phosphorylation.
PC12D cells (Aichi Prefectural County Research Institute) were sub-cultured using Dulbecco's Modified Eagle Medium (DMEM) comprising heat inactivated (56° C., 30 minutes) 5% horse serum (HS: Gibco), 10% fetal calf serum (FCS: CELLect), penicillin (50 units/mL) and streptomycin ([…]). […]
PC12D cells were inoculated into a 35 mm dish at 1×10^6 cells/dish, and after culturing for 24 hours in a CO2 incubator, the cells were treated with drug. […] Moreover, after subjecting to ultrasonic treatment for 5 minutes in ice water, the lysate was centrifuged for 20 minutes at 14,000 rpm followed by recovery of the supernatant and quantification of the amount of protein. […] Bands were detected using the ECL method. […]
PC12D cells were inoculated into a 3.5 cm dish at 1×10^6 cells/dish and cultured overnight followed by treating for 15 minutes with low-serum medium comprising various drugs, and lysing the cells with cell lysis solution to obtain a cell extract. The expression levels of p-ERK and total ERK in the cell extract were then analyzed. […]

SMILES	effect on CRE-dependent transcription [1]	effect on ERK phosphorylation [2]
COc1cc(-c2cc(=O)c3c(OC)c(OC)c(OC)c(OC)c3o2)ccc1O [4-demethylated nobiletin, 2-(4-hydroxy-3-methoxyphenyl)-5,6,7,8-tetramethoxychromen-4-one]	concentration-dependently promote CRE-dependent transcription in the same manner as nobiletin	–
COc1ccc(-c2cc(=O)c3c(OC)c(OC)c(OC)c(OC)c3o2)cc1OC [nobiletin, 5,6,7,8,3′,4′-hexamethoxyflavone]	concentration-dependently promote CRE-dependent transcription	only demonstrated weak promoting action of ERK phosphorylation when used alone
